This passage reports IC50 and half-life results from article PMC10791743, “Selective CK1α degraders exert antiproliferative activity against a broad range of human cancer cell lines” (Nature Communications, 2024).

For one data set, the system named is SHP-77. Nature of the data set: cells. Details: Oncolines panel cell viability, ATPlite 1Step luminescence, duplicate 9-point dose response, IC50. The note with it: Homo sapiens, SHP77; 72 h viability; read-out: SJ3149. How it is done:
(§1) Cell viability assays were performed as previously described. In brief, cells were seeded in a 384-well plate at an optimized density. The starting cell number was determined after 24 h incubation by adding ATPlite 1Step (Perkin Elmer, Groningen, the Netherlands) to each well and recording luminescence on an Envision multimode reader (Perkin Elmer, Waltham, MA). After the addition of a duplicate 9-point dilution series of SJ3149, cells were incubated for another 72 h, followed by cell counting using ATPlite 1Step. The dilution series ranged from 3.2 to 31,600 nM or was diluted 100-fold for the most sensitive cell lines to ideally capture the complete dose–response curve. Percentage viability was determined at each compound concentration by relating the observed signal to a vehicle-treated control, that is, medium containing 0.4% (v/v) DMSO. Compound IC50 values were calculated by fitting a 4-parameter logistic curve to the percentage viability values using IDBS XLfit5 (IDBS, Guildford, UK). The IC50 was limited to the maximum tested compound concentration when the IC50 exceeded the maximum tested concentration. […] To evaluate the compound’s effect and potential therapeutic application across a diverse range of human cancers, we profiled SJ3149 in Oncolines® panel consisting of 115 human cancer cell lines, of which 86 were solid tumor and 29 hematologic cell lines, including MOLM-13. Effect on cell viability was monitored using ATPLite™ (Perkin Elmer), which measures intracellular ATP content as an indirect readout of cell number, like CellTiter Glo.

The next data set deals with SW837. Nature of the data set: cells. Details: Oncolines panel cell viability, ATPlite 1Step luminescence, duplicate 9-point dose response, IC50. As to conditions: Homo sapiens, SW837; 72 h viability; read-out: SJ3149. How it is done:
as §1

Another data set has as its system PL-21. As to the kind of experiment: cells. As to conditions: PL-21; 72 h viability; read-out: SJ3149. Details: Oncolines panel cell viability, ATPlite 1Step luminescence, duplicate 9-point dose response, IC50. How it is done: as §1
For another data set, the system named is SW872. As to the kind of experiment: cells. Details: Oncolines panel cell viability, ATPlite 1Step luminescence, duplicate 9-point dose response, IC50. The note with it: Homo sapiens, SW872; 72 h viability; read-out: SJ3149. How it is done: as §1
The next data set has as its system RPMI-7951. Nature of the data set: cells. The note with it: Homo sapiens, RPMI-7951; 72 h viability; read-out: SJ3149. Details: Oncolines panel cell viability, ATPlite 1Step luminescence, duplicate 9-point dose response, IC50. How it is done: as §1
In the next data set the test system is NB4. As to the kind of experiment: cells. Details: Oncolines panel cell viability, ATPlite 1Step luminescence, duplicate 9-point dose response, IC50. The note with it: Homo sapiens, NB-4; 72 h viability; read-out: SJ3149. How it is done:
as §1

Another data set deals with Kasumi-1. As to the kind of experiment: cells. Details: Oncolines panel cell viability, ATPlite 1Step luminescence, duplicate 9-point dose response, IC50. As to conditions: Homo sapiens, Kasumi 1; 72 h viability; read-out: SJ3149. How it is done:
as §1

The subject of a further data set is LS411N. Nature of the data set: cells. Details: Oncolines panel cell viability, ATPlite 1Step luminescence, duplicate 9-point dose response, IC50. As to conditions: Homo sapiens, LS-411N; 72 h viability; read-out: SJ3149. How it is done: as §1
Data set [1] is described as follows: Metabolic stability in cryopreserved hepatocytes, human. In kind it is in vitro ADME. The note with it: human, cryopreserved hepatocytes; read-out: Hepatocyte stability t1/2. How it is done:
page 34: UHPLC-MS/MS System: Chromatographic separation was performed on an Acquity UPLC BEH […] with 6500+ Qtrap system. […] software suite. The UPLC column was maintained at 55 °C. Mobile phase A was 0.1% formic acid in MilliQ H2O and Mobile phase B was 0.1% formic acid in acetonitrile. The flow rate was 0.9 […] The mass spectrometer was operated in positive-ion mode with electrospray ionization. MRM transition m/z […] plasma stability and plasma protein binding. The following MS parameters were employed for analyte measurements: ion spray voltage 5 kV, temperature 550 °C, gas 1 and gas 2 were 60, entrance potential (EP): 10 V, declustering potential (DP): 50 V, collision energy (CE): 27 V, and collision cell exit potential (CXP): 16 V. Metabolic Stability in mouse and human cryopreserved hepatocytes. 10 mM test compounds were provided by Compound Sample Group. Diluted 10 mM test compounds and 30 mM positive control compounds (7-ethoxycoumarin) to 1 mM and 3 mM with DMSO in 96-well plates. Diluted 1 mM test compounds and 3 mM positive control compounds to 100 μM and 300 μM dosing solutions with ACN. Cryopreserved cells were thawed, isolated and suspended in Incubation Medium, then diluted with pre-warmed Incubation Medium to 0.5 × 10^6cells/mL. Added 198 μL of pre-warmed cell suspensions in 96 -well plates. Transferred 125 μL of stop solution (acetonitrile containing 200 ng/mL tolbutamide and 200 ng/mL labetalol as internal standards) in a set of pre- labeled 96-well plates. Spike d 2 μL dosing solution to each well of 96 -well plates in duplicates. For T0 Samples, mix ed to achieve a homogenous suspension for about 1 min, then immediately transferred 25 μL of each sample into well containing 125 μL of ice -cold stop solution followed by mixing. Incubated all plates at 37°C in a 95% humidified incubator at 5% CO 2 to start the reactions page 35: with constant shaking at about 600 rpm. At 15, 30, 60 and 90 min, mixed samples and then transferred 25 μL of each sample at each time point to well containing 125 μL of ice -cold stop solution followed by mixing. Medium Control (MC) sample plates (labeled as T0-MC and T90- MC) were prepared at T0 and T90 by adding the same components to each well except cell suspensions. At each corresponding time point, stopped the reactions by removing the plates from incubator and mixing with 125 μL of ice-cold stop solution. Vortexed the plates immediately on a plate shaker at 500 rpm for 10 minutes. Then, centrifuge d all sample plates at 3220 x g for 20 min at 4°C. After centrifugation, 80 μL/well of supernatant in the sample plates were transferred to another set of pre-labeled 96-well plates which containing 240 μL of ultra pure water according to the plate map. Analytical plates were sealed and stored at 4°C until LC-MS/MS analysis. Thawing Medium: Williams' Medium E containing 5% fetal bovine serum and 30% Perc oll solution and other supplements. Incubation Medium: Williams' Medium E (no phenol red) containing 2 mM L-Glutamine and 25 mM HEPES. Stop Solution: Acetonitrile containing 200 ng/mL tolbutamide and labetalol as internal standards. Dilution Solution: Ultra-pure water. The remaining percents of test articles after incubation were calculated by the follow equations: Equation ( 6): Use equation of first order kinetics [NT] […] The data was […] concatenated with a reversed decoy database for evaluating False Discovery Rate (FDR). […]

Consider `O=C1CCC(N2Cc3cc(Nc4noc5ccccc45)ccc3C2=O)C(=O)N1` (stereo not drawn) [SJ3149], for which the IC50 in the data set on SHP-77, in the data set with SW837, in the data set on PL-21, in the data set with SW872, in the data set on RPMI-7951 and in the data set with NB4 was greater than 31.6 µM in each case. Moreover, the IC50 in the data set on Kasumi-1 and in the data set on LS411N was greater than 31.6 µM each time. The half-life at 1 µM in data set [1] was greater than 3.6 h.
